# Columns and labels:
# [1] = tested on: psyllids Creiis lituratus; assay: Field trial, subsurface application for the control of psyllids (lerp counts) on Eucalyptus dunni; assay type: in vivo; details: for Mean lerp count per 5 terminal leaflets: subsurface application
# Source text: (§1) Near Casino, northern New South Wales, Australia in the 2006-2007 season, chlothianidin as a suspension (200 g/L) in water at 0.5, 1.0 and 1.5 grams of active ingredient per tree (gai/tree) was applied to 2 year old Eucalyptus dunni trees for the control of psyllids Creiis lituratus during winter and chrysomelid leaf beetles during summer.
# (§2) A single application below the soil surface was made by coulter 20-40 cm from the base of the stem of the trees and to a depth of 10-15 cm in 128 L of water per hectare. Psyllid lerp counts were taken 141 and 303 DAT (days after treatment). Tree height was measured at treatment and then at 303 DAT. Diameter at breast height was measured at 303 DAT.
# [2] = tested on: 2 year old Eucalyptus dunni trees; assay: Field trial, effect of psyllid control on growth of E. dunni (tree height, diameter, wood volume); assay type: in vivo; details: for Mean increase in tree height: 0-303 DAT
# Source text: as §1, §2
# The difference in volume between the untreated and the 1 gai/tree treatment can be calculated over 303 days
structure (smiles),measurement,setting,value
"CN/C(=N\[N+](=O)[O-])NCc1cnc(Cl)s1 [Clothianidin, clothianidin]",Mean lerp count per 5 terminal leaflets,"[1]; 0.5 gai/tree, Mar. 19, 2007 (303 DAT)",3.50 B
same,Mean lerp count per 5 terminal leaflets,"[1]; 0.5 gai/tree, Oct. 7, 2006 (141 DAT)",2.33 b
same,Mean lerp count per 5 terminal leaflets,"[1]; 1 gai/tree, Mar. 19, 2007 (303 DAT)",2.06 B
same,Mean lerp count per 5 terminal leaflets,"[1]; 1 gai/tree, Oct. 7, 2006 (141 DAT)",0.71 c
same,Mean lerp count per 5 terminal leaflets,"[1]; 1.5 gai/tree, Mar. 19, 2007 (303 DAT)",0.69 B
same,Mean lerp count per 5 terminal leaflets,"[1]; 1.5 gai/tree, Oct. 7, 2006 (141 DAT)",0.58 c
same,psyllid lerp counts,"[1]; sub-surface application at 0.5 to 1.5 gai/tree, up to 303 DAT",significantly reduced
same,Mean increase in tree height,[2]; 0.5 gai/tree,198 ab cm
same,"DBM (diameter at breast height, 1.3 m above ground level)","[2]; 0.5 gai/tree, 303 DAT",5.44 cm
same,Mean tree height,"[2]; 0.5 gai/tree, 303 DAT",500 bc cm
same,Mean increase in tree height,[2]; 1 gai/tree,228 a cm
same,"DBM (diameter at breast height, 1.3 m above ground level)","[2]; 1 gai/tree, 303 DAT",5.91 cm
same,Mean tree height,"[2]; 1 gai/tree, 303 DAT",526 b cm
same,Increase in wood volume,"[2]; 1 gai/tree, 303 DAT, versus untreated",8.5 m^3/ha
same,Mean tree diameter,"[2]; 1 gai/tree, over 303 days",5.91 cm
same,Mean tree height,"[2]; 1 gai/tree, over 303 days",5.26 m
same,Mean wood vol/ha,"[2]; 1 gai/tree, over 303 days",22.2 m^3
same,Mean increase in tree height,[2]; 1.5 gai/tree,229 a cm
same,"DBM (diameter at breast height, 1.3 m above ground level)","[2]; 1.5 gai/tree, 303 DAT",6.67 cm
same,Mean tree height,"[2]; 1.5 gai/tree, 303 DAT",594 a cm
same,growth of E. dunni,"[2]; sub-surface application at 0.5 to 1.5 gai/tree, high psyllid pressure, up to 303 DAT",improved

# Reference: US9936622B2, “Apparatus for applying a pesticide to perennial crops” (Sumitomo Chemical Company, Limited, priority 2007, dated 2018)
